The values below come from patent US20090269753A1 (priority 2007, published 2009).

Molecules are shown by their SMILES.

One test has as its system fasl. The test is described as follows: fasl real-time RT-PCR in SRC-1-/- osteoclasts transfected with SRC-1 WT or P1272S. Format: cell-based, mice. The note with it: estradiol 10 nM or 40H-Tamoxifen 1 μM, 24 h.
The nature of test [1]: Hip and lumbar BMD by DXA at baseline and after 12 months of tamoxifen treatment. It is filed as in vivo, women. From the text: Patients were enrolled after they had completed all primary surgery, radiation, and adjuvant chemotherapy.
The mark [2] stands for this setting: SRC-1-/- osteoclasts with P1272S SRC-1.
The mark [3] stands for this setting: SRC-1-/- osteoclasts with transfected Flag-SRC-1 WT vs vector alone.

Regarding `C[C@]12CC[C@@H]3c4ccc(O)cc4CC[C@H]3[C@@H]1CC[C@@H]2O` [Estrogen, estradiol], the Induction of fasl entry in the test on fasl (setting [2]) was “failed to upregulate fasl”; with fasl (setting [3]), “detectable”.

Turning to `CC/C(=C(\c1ccccc1)c1ccc(OCCN(C)C)cc1)c1ccccc1` [Tamoxifen, tamoxifen], the “Lumbar BMD decrease” value in test [1] (P1272S carriers (n=4), p=0.04 vs women without the SNP) was 6.4%; in test [1] (women without the SNP (n=107)), 1.3%. The “hip BMD decrease” value stood at 4.3% in test [1] (SNP carriers (n=4), p=0.08 vs WT group) and 0.6% in test [1] (WT group (n=102)). Also, the Induction of fasl result is on record as “failed to upregulate fasl” with fasl (setting [2]) and “detectable” with fasl (setting [3]).
